Our source for the Ki values is BindingDB's records for doi:10.1021/jm0500875 (Pfizer, 2005).

Structures can show the parent of a compound that is named as a salt.

Holding throughout (assay): Enzyme Inhibition Assay
The target of one experiment is Neutrophil collagenase (Homo sapiens, UniProt P22894). As to the method: (§1) Inhibitors were assayed against purified hMMP-1, hMMP-2, hMMP-3, hMMP-8, hMMP-9, and hMMP-13 using an enzyme assay based on cleavage of the quenched fluorogenic peptide substrate. The increase in fluorescence due to cleavage of the substrate was measured with a fluorescence microplate reader. The Ki values were calculated by nonlinear regression analysis using the percent inhibition, and Km values of the substrates for each MMP.
Chain of Neutrophil collagenase (P22894 whole entry): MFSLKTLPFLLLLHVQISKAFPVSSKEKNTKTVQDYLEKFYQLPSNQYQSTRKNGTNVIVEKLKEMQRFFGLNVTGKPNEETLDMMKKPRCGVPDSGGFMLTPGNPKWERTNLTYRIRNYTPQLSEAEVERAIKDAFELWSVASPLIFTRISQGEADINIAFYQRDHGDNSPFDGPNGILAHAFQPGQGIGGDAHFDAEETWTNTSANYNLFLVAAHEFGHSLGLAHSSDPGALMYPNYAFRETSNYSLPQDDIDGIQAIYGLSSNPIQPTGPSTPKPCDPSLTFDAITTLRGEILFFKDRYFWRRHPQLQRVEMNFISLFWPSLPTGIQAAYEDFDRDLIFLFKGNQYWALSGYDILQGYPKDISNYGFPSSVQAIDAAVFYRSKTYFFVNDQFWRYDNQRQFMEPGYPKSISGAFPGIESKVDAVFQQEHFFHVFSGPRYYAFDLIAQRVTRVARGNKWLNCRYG

The next experiment concerns the target Stromelysin-1 (Homo sapiens, UniProt P08254). As to the method:
as §1

Experiment [1] has as its target 72 kDa type IV collagenase (Homo sapiens, UniProt P08253). As to the method:
as §1

Experiment [2] concerns the target Matrix metalloproteinase-9 (Homo sapiens, UniProt P14780). As to the method: as §1
Another experiment addresses T1, Interstitial collagenase (Homo sapiens, UniProt P03956).
T1 sequence (P03956 whole entry): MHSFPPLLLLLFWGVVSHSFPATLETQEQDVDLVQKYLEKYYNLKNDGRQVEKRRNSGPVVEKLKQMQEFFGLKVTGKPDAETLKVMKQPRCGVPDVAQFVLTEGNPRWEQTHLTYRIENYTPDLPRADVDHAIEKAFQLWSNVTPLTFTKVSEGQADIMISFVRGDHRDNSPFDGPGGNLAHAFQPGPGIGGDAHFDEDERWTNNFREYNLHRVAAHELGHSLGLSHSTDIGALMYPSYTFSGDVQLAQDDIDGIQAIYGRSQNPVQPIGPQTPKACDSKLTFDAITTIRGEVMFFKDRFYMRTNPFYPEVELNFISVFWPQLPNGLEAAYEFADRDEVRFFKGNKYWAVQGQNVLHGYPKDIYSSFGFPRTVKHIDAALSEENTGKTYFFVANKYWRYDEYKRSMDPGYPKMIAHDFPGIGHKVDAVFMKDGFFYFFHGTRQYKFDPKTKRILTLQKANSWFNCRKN
Conditions: pH 7.5; 25 °C. As to the method: as §1

The target in a further experiment is Collagenase 3 (Homo sapiens, UniProt P45452). The method, then:
as §1

Chain of Matrix metalloproteinase-9 (P14780 whole entry): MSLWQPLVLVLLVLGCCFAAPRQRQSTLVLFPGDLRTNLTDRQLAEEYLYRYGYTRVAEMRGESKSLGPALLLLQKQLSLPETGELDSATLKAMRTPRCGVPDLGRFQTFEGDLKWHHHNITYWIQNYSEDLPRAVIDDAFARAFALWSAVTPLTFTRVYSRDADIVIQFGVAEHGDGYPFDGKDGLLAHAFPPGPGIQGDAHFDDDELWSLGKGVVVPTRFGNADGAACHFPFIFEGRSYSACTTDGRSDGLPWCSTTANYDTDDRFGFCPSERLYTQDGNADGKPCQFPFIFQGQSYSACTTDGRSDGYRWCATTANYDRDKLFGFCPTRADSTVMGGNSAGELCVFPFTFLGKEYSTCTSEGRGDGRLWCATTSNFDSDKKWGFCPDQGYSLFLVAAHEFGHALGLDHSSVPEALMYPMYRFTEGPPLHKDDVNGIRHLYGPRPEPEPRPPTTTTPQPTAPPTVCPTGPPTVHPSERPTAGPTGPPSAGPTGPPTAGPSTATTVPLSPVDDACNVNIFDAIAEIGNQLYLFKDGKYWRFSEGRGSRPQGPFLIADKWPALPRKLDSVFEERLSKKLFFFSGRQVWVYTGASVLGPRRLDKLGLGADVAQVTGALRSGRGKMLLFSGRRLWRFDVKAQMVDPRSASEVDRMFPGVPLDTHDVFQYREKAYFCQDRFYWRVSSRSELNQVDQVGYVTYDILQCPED
Chain of 72 kDa type IV collagenase (P08253 whole entry): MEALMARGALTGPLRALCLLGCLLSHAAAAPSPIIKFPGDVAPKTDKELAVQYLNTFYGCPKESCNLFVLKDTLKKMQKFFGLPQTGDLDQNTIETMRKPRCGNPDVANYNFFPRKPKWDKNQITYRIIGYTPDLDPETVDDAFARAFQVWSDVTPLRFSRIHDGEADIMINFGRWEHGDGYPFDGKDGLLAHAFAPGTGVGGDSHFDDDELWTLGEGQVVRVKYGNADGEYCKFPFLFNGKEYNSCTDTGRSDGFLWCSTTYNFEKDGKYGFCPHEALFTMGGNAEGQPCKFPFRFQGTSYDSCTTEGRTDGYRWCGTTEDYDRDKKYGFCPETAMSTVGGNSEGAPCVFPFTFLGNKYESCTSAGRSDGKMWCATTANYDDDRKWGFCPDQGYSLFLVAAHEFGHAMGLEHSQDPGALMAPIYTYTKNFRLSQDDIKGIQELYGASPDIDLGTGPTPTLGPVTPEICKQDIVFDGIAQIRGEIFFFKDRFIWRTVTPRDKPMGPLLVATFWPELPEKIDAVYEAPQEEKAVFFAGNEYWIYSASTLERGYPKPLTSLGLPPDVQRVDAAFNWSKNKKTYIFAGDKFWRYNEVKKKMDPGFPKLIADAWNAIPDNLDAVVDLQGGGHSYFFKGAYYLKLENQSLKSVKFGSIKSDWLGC
Chain of Stromelysin-1 (P08254 whole entry): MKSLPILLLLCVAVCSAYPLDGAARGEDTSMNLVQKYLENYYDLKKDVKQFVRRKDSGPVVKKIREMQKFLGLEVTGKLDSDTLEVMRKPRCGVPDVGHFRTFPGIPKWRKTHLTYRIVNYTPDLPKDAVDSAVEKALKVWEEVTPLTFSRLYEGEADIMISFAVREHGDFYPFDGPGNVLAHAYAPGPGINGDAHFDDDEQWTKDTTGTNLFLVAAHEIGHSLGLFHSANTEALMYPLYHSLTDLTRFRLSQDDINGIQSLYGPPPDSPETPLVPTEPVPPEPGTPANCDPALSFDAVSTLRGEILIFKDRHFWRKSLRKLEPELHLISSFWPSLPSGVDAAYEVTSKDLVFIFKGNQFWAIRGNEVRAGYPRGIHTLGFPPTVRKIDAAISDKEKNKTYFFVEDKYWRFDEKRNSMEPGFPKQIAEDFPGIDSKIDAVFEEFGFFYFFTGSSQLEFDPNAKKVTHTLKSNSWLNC

For the molecule `O=C(NO)C1(S(=O)(=O)c2ccc(Oc3ccccc3)cc2)CCNCC1` [N-hydroxy-4-[(4-phenoxybenzene)sulfonyl]piperidine-4-carboxamide], the Ki (as a rule, the equilibrium dissociation constant of an inhibitor or competing ligand from its target) at Neutrophil collagenase came out at 3.5 nM; at Stromelysin-1, 59 nM; in experiment [1], 0.22 nM; in experiment [2] it was 5 nM; at Interstitial collagenase, 1060 nM; at Collagenase 3, 0.37 nM.

On to `O=C(NO)C1(CS(=O)(=O)c2ccc(Oc3ccccc3)cc2)CCNCC1` [N-hydroxy-4-{[(4-phenoxybenzene)sulfonyl]methyl}piperidine-4-carboxamide hydrochloride], for which the inhibition constant (Ki) at Neutrophil collagenase stood at 2.4 nM; at Stromelysin-1, 158 nM; in experiment [1], 2.8 nM; in experiment [2], 30 nM; at Interstitial collagenase it was 2400 nM; at Collagenase 3 it was 8 nM.
